Experimental data published in US5250683A, “Certain substituted taxanes and pharmaceutical compositions containing them” (Florida State University, priority 1992, dated 1993).

Each compound was assayed on tubulin (assay: Tubulin binding assay (Tubulin Assay), method of Parness et al.). Conditions: compared to taxol and taxotere.

Compound	Tubulin Assay Init. Peak	Tubulin Assay Rel. Rate
CC(=O)O[C@H]1C(=O)[C@@]2(C)[C@H]([C@H](OC(=O)c3ccccc3)[C@]3(O)C[C@H](OC(=O)[C@H](O)[C@@H](NC(=O)c4ccccc4)c4cccc5ccccc45)C(C)=C1C3(C)C)[C@]1(OC(C)=O)CO[C@@H]1C[C@@H]2O [Example 1, 3'-desphenyl-3'-(1-naphthyl) taxol]	0	0
CC(=O)O[C@H]1C(=O)[C@@]2(C)[C@H]([C@H](OC(=O)c3ccccc3)[C@]3(O)C[C@H](OC(=O)[C@H](O)[C@@H](NC(=O)c4ccccc4)c4ccc5ccccc5c4)C(C)=C1C3(C)C)[C@]1(OC(C)=O)CO[C@@H]1C[C@@H]2O [Example 2, 3'-desphenyl-3'-(2-naphthyl) taxol]	0	0
COc1ccc([C@H](NC(=O)c2ccccc2)[C@@H](O)C(=O)O[C@H]2C[C@@]3(O)[C@@H](OC(=O)c4ccccc4)[C@@H]4[C@]5(OC(C)=O)CO[C@@H]5C[C@H](O)[C@@]4(C)C(=O)[C@H](OC(C)=O)C(=C2C)C3(C)C)cc1 [Example 3, 3'-desphenyl-3'-(4-methoxyphenyl) taxol]	59	87
CC(=O)O[C@H]1C(=O)[C@@]2(C)[C@H]([C@H](OC(=O)c3ccccc3)[C@]3(O)C[C@H](OC(=O)[C@H](O)[C@@H](NC(=O)c4ccccc4)c4ccc(Cl)cc4)C(C)=C1C3(C)C)[C@]1(OC(C)=O)CO[C@@H]1C[C@@H]2O [Example 4, 3'-desphenyl-3'-(4-chlorophenyl) taxol]	94	97
CC(=O)O[C@H]1C(=O)[C@@]2(C)[C@H]([C@H](OC(=O)c3ccccc3)[C@]3(O)C[C@H](OC(=O)[C@H](O)[C@@H](NC(=O)c4ccccc4)c4ccc(Br)cc4)C(C)=C1C3(C)C)[C@]1(OC(C)=O)CO[C@@H]1C[C@@H]2O [Example 5, 3'-desphenyl-3'-(4-bromophenyl) taxol]	5	74
CC(=O)O[C@H]1C(=O)[C@@]2(C)[C@H]([C@H](OC(=O)c3ccccc3)[C@]3(O)C[C@H](OC(=O)[C@H](O)[C@@H](NC(=O)c4ccccc4)c4ccc5c(c4)OCO5)C(C)=C1C3(C)C)[C@]1(OC(C)=O)CO[C@@H]1C[C@@H]2O [Example 6, 3'-desphenyl-3'-(3,4-methylenedioxyphenyl) taxol]	53	85
COc1ccc([C@H](NC(=O)c2ccccc2)[C@@H](O)C(=O)O[C@H]2C[C@@]3(O)[C@@H](OC(=O)c4ccccc4)[C@@H]4[C@]5(OC(C)=O)CO[C@@H]5C[C@H](O)[C@@]4(C)C(=O)[C@H](OC(C)=O)C(=C2C)C3(C)C)cc1OC [Example 7, 3'-desphenyl-3'-(3,4-dimethoxyphenyl) taxol]	11	26
CC(=O)O[C@H]1C(=O)[C@@]2(C)[C@H]([C@H](OC(=O)c3ccccc3)[C@]3(O)C[C@H](OC(=O)[C@H](O)[C@@H](NC(=O)c4ccccc4)c4ccc([N+](=O)[O-])cc4)C(C)=C1C3(C)C)[C@]1(OC(C)=O)CO[C@@H]1C[C@@H]2O [Example 8, 3'-desphenyl-3'-(4-nitrophenyl) taxol]	114	105
CC(=O)O[C@H]1C(=O)[C@@]2(C)[C@H]([C@H](OC(=O)c3ccccc3)[C@]3(O)C[C@H](OC(=O)[C@H](O)[C@@H](NC(=O)c4ccccc4)c4ccc(F)cc4)C(C)=C1C3(C)C)[C@]1(OC(C)=O)CO[C@@H]1C[C@@H]2O [Example 9, 3'-desphenyl-3'-(4-fluorophenyl) taxol]	100	–
CC(=O)O[C@H]1C(=O)[C@@]2(C)[C@H]([C@H](OC(=O)c3ccccc3)[C@]3(O)C[C@H](OC(=O)[C@H](O)[C@@H](NC(=O)c4ccc(Cl)cc4)c4ccccc4)C(C)=C1C3(C)C)[C@]1(OC(C)=O)CO[C@@H]1C[C@@H]2O [Example 10, N-debenzoyl-N-(4-chlorobenzoyl) taxol]	75	90
CC(=O)O[C@H]1C(=O)[C@@]2(C)[C@H]([C@H](OC(=O)c3ccccc3)[C@]3(O)C[C@H](OC(=O)[C@H](O)[C@@H](NC(=O)c4ccc(Br)cc4)c4ccccc4)C(C)=C1C3(C)C)[C@]1(OC(C)=O)CO[C@@H]1C[C@@H]2O [Example 11, N-debenzoyl-N-(4-bromobenzoyl) taxol]	67	88
CC(=O)O[C@H]1C(=O)[C@@]2(C)[C@H]([C@H](OC(=O)c3ccccc3)[C@]3(O)C[C@H](OC(=O)[C@H](O)[C@@H](NC(=O)c4ccc(C)cc4)c4ccccc4)C(C)=C1C3(C)C)[C@]1(OC(C)=O)CO[C@@H]1C[C@@H]2O [Example 12, N-debenzoyl-N-(4-methylbenzoyl) taxol]	107	110
CC(=O)O[C@H]1C(=O)[C@@]2(C)[C@H]([C@H](OC(=O)c3ccccc3)[C@]3(O)C[C@H](OC(=O)[C@H](O)[C@@H](NC(=O)c4ccc(C(C)(C)C)cc4)c4ccccc4)C(C)=C1C3(C)C)[C@]1(OC(C)=O)CO[C@@H]1C[C@@H]2O [Example 13, N-debenzoyl-N-(4-t-butylbenzoyl) taxol]	67	85
COc1ccc(C(=O)N[C@@H](c2ccccc2)[C@@H](O)C(=O)O[C@H]2C[C@@]3(O)[C@@H](OC(=O)c4ccccc4)[C@@H]4[C@]5(OC(C)=O)CO[C@@H]5C[C@H](O)[C@@]4(C)C(=O)[C@H](OC(C)=O)C(=C2C)C3(C)C)cc1 [Example 14, N-debenzoyl-N-(4-methoxybenzoyl) taxol]	95	99
CC(=O)O[C@H]1C(=O)[C@@]2(C)[C@H]([C@H](OC(=O)c3ccccc3)[C@]3(O)C[C@H](OC(=O)[C@H](O)[C@@H](NC(=O)c4ccc(F)cc4)c4ccc(F)cc4)C(C)=C1C3(C)C)[C@]1(OC(C)=O)CO[C@@H]1C[C@@H]2O [Example 15, N-debenzoyl-N-(4-fluorobenzoyl)-3'-desphenyl-3'-(4-fluorophenyl) taxol]	89	98
CC(=O)O[C@H]1C(=O)[C@@]2(C)[C@H]([C@H](OC(=O)c3ccccc3)[C@]3(O)C[C@H](OC(=O)[C@H](O)[C@@H](NC(=O)c4ccc(F)cc4)c4ccccc4)C(C)=C1C3(C)C)[C@]1(OC(C)=O)CO[C@@H]1C[C@@H]2O [Example 16, N-debenzoyl-N-(4-fluorobenzoyl) taxol]	66	90
CC(=O)O[C@H]1C(=O)[C@@]2(C)[C@H]([C@H](OC(=O)c3ccccc3)[C@]3(O)C[C@H](OC(=O)[C@H](O)[C@@H](NC(=O)c4ccc(C)cc4)c4ccc(Cl)cc4)C(C)=C1C3(C)C)[C@]1(OC(C)=O)CO[C@@H]1C[C@@H]2O [Example 17, N-debenzoyl-N-(4-methylbenzoyl)-3'-desphenyl-3'-(4-chlorophenyl) taxol]	101	98
CC(=O)O[C@H]1C(=O)[C@@]2(C)[C@H]([C@H](OC(=O)c3ccccc3)[C@]3(O)C[C@H](OC(=O)[C@H](O)[C@@H](NC(=O)c4ccc(Cl)cc4)c4ccc(F)cc4)C(C)=C1C3(C)C)[C@]1(OC(C)=O)CO[C@@H]1C[C@@H]2O [Example 18, N-debenzoyl-N-(4-chlorobenzoyl)-3'-desphenyl-3'-(4-fluorophenyl) taxol]	109	92
CC(=O)O[C@H]1C(=O)[C@@]2(C)[C@H]([C@H](OC(=O)c3ccccc3)[C@]3(O)C[C@H](OC(=O)[C@H](O)[C@@H](NC(=O)c4ccc(Br)cc4)c4ccc(F)cc4)C(C)=C1C3(C)C)[C@]1(OC(C)=O)CO[C@@H]1C[C@@H]2O [Example 19, N-debenzoyl-N-(4-bromobenzoyl)-3'-desphenyl-3'-(4-fluorophenyl) taxol]	88	100
CC(=O)O[C@H]1C(=O)[C@@]2(C)[C@H]([C@H](OC(=O)c3ccccc3)[C@]3(O)C[C@H](OC(=O)[C@H](O)[C@@H](NC(=O)c4ccc(C)cc4)c4ccc(F)cc4)C(C)=C1C3(C)C)[C@]1(OC(C)=O)CO[C@@H]1C[C@@H]2O [Example 20, N-debenzoyl-N-(4-methylbenzoyl)-3'-desphenyl-3'-(4-fluorophenyl) taxol]	85	98
COc1ccc([C@H](NC(=O)c2ccc(F)cc2)[C@@H](O)C(=O)O[C@H]2C[C@@]3(O)[C@@H](OC(=O)c4ccccc4)[C@@H]4[C@]5(OC(C)=O)CO[C@@H]5C[C@H](O)[C@@]4(C)C(=O)[C@H](OC(C)=O)C(=C2C)C3(C)C)cc1 [Example 21, N-debenzoyl-N-(4-fluorobenzoyl)-3'-desphenyl-3'-(4-methoxyphenyl) taxol]	45	81
COc1ccc([C@H](NC(=O)c2ccc(C)cc2)[C@@H](O)C(=O)O[C@H]2C[C@@]3(O)[C@@H](OC(=O)c4ccccc4)[C@@H]4[C@]5(OC(C)=O)CO[C@@H]5C[C@H](O)[C@@]4(C)C(=O)[C@H](OC(C)=O)C(=C2C)C3(C)C)cc1 [Example 22, N-debenzoyl-N-(4-methylbenzoyl)-3'-desphenyl-3'-(4-methoxyphenyl) taxol]	77	96
CC(=O)O[C@H]1C(=O)[C@@]2(C)[C@H]([C@H](OC(=O)c3ccccc3)[C@]3(O)C[C@H](OC(=O)[C@H](O)[C@@H](NC(=O)c4ccc(F)cc4)c4ccc(Cl)cc4)C(C)=C1C3(C)C)[C@]1(OC(C)=O)CO[C@@H]1C[C@@H]2O [Example 23, N-debenzoyl-N-(4-fluorobenzoyl)-3'-desphenyl-3'-(4-chlorophenyl) taxol]	63	88
CC(=O)O[C@H]1C(=O)[C@@]2(C)[C@H]([C@H](OC(=O)c3ccccc3)[C@]3(O)C[C@H](OC(=O)[C@H](O)[C@@H](NC(=O)c4ccc(Cl)cc4)c4ccc(Cl)cc4)C(C)=C1C3(C)C)[C@]1(OC(C)=O)CO[C@@H]1C[C@@H]2O [Example 24, N-debenzoyl-N-(4-chlorobenzoyl)-3'-desphenyl-3'-(4-chlorophenyl) taxol]	35	60
